Read-outs that look alike come from different tables or passages of the source.
Legend:
human AR [1] = molecular target: T1, human AR (Homo sapiens, UniProt P10275); experiment: Co-transfection assay, AR agonist activity, CV-1 cells; format: cell-based; parameters: expressed in transfected cells; host or cells: CV-1 cells (African green monkey kidney fibroblasts), transient transfection with pRShAR; conditions: for AR Agonist CV-1 Cells Efficacy (%): percent maximal response relative to reference agonist DHT
T1 sequence (P10275 1-920): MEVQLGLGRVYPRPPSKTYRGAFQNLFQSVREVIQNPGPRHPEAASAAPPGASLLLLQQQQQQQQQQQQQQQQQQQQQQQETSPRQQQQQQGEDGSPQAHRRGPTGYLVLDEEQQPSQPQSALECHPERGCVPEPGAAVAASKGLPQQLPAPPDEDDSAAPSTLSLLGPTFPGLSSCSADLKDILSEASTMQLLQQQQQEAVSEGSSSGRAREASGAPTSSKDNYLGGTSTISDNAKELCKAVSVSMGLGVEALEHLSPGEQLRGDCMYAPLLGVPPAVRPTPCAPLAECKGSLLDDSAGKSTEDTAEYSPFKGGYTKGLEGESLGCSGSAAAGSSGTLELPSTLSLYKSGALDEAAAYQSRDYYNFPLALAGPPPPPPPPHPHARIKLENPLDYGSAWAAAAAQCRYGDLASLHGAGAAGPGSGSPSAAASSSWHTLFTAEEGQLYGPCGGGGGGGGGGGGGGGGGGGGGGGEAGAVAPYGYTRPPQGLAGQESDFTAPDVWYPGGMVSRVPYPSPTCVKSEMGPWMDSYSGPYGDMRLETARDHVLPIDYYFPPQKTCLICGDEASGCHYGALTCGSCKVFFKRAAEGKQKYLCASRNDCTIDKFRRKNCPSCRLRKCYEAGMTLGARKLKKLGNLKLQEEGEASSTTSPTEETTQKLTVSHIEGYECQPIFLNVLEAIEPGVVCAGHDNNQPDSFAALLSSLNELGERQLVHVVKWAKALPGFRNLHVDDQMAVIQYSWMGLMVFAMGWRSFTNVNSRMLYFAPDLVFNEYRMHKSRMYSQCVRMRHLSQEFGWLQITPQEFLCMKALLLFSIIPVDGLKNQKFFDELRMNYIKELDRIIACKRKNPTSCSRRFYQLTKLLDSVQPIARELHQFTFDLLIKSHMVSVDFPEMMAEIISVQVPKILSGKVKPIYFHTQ

human AR [2] = molecular target: T1, human AR; experiment: AR whole cell competitive binding assay (3H-DHT), transfected COS-1 cells; parameters: expressed in transfected cells; transient transfection with pRShAR; conditions: COS-1 cells, 1 nM 3H-DHT, Cheng-Prusoff from IC50
human AR [3] = molecular target: T1, human AR; experiment: Co-transfection assay, AR antagonist activity in presence of DHT, CV-1 cells; format: cell-based; parameters: expressed in transfected cells; host or cells: CV-1 cells (African green monkey kidney fibroblasts), transient transfection with pRShAR; conditions: CV-1 cells; for IC50: antagonist potency or IC50, DHT at its EC50 concentration; for AR Antagonist CV-1 Cells Efficacy (%): percent maximal inhibition, DHT at its EC50 concentration
[4] = AR Antagonist CV-1 Cells Potency (nM)
[5] = AR Agonist CV-1 Cells Potency (nM), agonist potency or EC50

Compound | AR Agonist CV-1 Cells Efficacy (%) (human AR [1]) | Ki (human AR [2]; AR Binding Ki (nM)) | IC50 (human AR [3]; [4]) | AR Antagonist CV-1 Cells Efficacy (%) (human AR [3]) | EC50 (human AR [1]; [5]) | EC50 (human AR [1]; agonist potency or EC50, read-out: AR Agonist CV-1 Cells Potency) | Ki (human AR [2]; read-out: AR Binding Ki) | IC50 (human AR [3]; read-out: AR Antagonist CV-1 Cells Potency)
O=c1cc(C(F)(F)F)c2cc3c(cc2[nH]1)CCCN3CC1CC1 [Compound 201, 4-Trifluoromethyl-6-cyclopropylmethyl-6,7,8,9-tetrahydropyrido[2,3-g]quinolin-2(1H)-one] | 76% | 10 nM | > 10000 nM | na (na = not active (i.e. efficacy of <20 and potency of >10,000)) |  |  |  | 
CC1=CC(C)(C)Oc2cc3oc(=O)cc(C(F)(F)F)c3cc21 [Compound 223, 6,8,8-Trimethyl-4-trifluoromethyl-8H-pyrano[3,2-g]coumarin] | na (na = not active (i.e. efficacy of <20 and potency of >10,000)) | 37 nM | 41 nM | 66% | > 10000 nM |  |  | 
CCC1=CC(C)(C)Oc2cc3oc(=O)cc(C(F)(F)F)c3cc21 [Compound 227, 6-Ethyl-8,8-dimethyl-4-trifluoromethyl-8H-pyrano[3,2-g]coumarin] | na (na = not active (i.e. efficacy of <20 and potency of >10,000)) | 33 nM | 25 nM | 75% | > 10000 nM |  |  | 
(+)-6,7-Dihydro-6-ethyl-4-trifluoromethyl-8H-pyrano[3,2-g]quinolin-2(1H)-one [Compound 218] | 82% |  |  | na (na = not active (i.e. efficacy of <20 and potency of >10,000)) |  | 10 nM | 4.1 nM | > 10000 nM
